Laboratory results taken from US7902248B2, “Oxime glucokinase activators” (Hoffmann-La Roche Inc., priority 2006, dated 2011).

Target: T1, Recombinant human liver GK (GST-GK) (Homo sapiens, UniProt P35557)
T1 construct: made in house; host or cells: E. coli
T1 sequence (P35557 1-466 isoform P35557-2): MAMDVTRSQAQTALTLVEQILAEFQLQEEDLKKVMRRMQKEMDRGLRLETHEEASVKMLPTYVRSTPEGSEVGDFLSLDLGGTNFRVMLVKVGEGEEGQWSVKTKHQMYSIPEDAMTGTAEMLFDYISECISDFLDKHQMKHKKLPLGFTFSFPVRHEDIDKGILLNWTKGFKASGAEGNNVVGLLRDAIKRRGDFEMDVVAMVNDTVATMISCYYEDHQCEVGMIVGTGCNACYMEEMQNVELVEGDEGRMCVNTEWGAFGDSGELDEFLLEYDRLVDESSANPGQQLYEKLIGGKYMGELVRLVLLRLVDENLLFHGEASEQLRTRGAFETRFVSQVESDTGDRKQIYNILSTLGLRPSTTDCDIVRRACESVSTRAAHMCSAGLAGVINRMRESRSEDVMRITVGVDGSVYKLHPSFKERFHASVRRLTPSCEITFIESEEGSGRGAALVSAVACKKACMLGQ
Test: In vitro glucokinase activity assay (G6PDH-coupled NADH generation, OD 340 nm)
Format: biochemical
Details: concentration of activator that produced a 50% increase in the activity of GK; 5 mM D-glucose, 25° C.-30° C., pH 7.1
Protocol: Glucokinase In Vitro Assay Protocol. Glucokinase (GK) was assayed by coupling the production of glucose-6-phosphate to the generation of NADH with glucose-6-phosphate dehydrogenase (G6PDH, Roche) from Leuconostoc mesenteroides as the coupling enzyme (Scheme 2).
Recombinant human liver GK was expressed in E. coli as a glutathione S-transferase fusion protein (GST-GK) [Liang et al, 1995] and was purified by chromatography over a glutathione-Sepharose 4B affinity column using the procedure provided by the manufacturer (Amersham Pharmacia Biotech, Piscataway, N.J.).
The assay was conducted at 25° C.-30° C. in a flat bottom 96-well tissue culture plate from Costar (Cambridge, Mass.) with a final incubation volume of 120 μL. The incubation reaction contained the following: 25 mM Hepes buffer (pH 7.1), 25 mM KCl, 5 mM D-glucose, 1 mM ATP, 1.8 mM NAD, 2 mM MgCl2, 1 μM sorbitol-6-phosphate, 1 mM dithiothreitol, test drug or 10% DMSO, 1.8 unit/ml G6PDH, and GK (see below). All organic reagents were >98% pure and were from Roche with the exceptions of D-glucose and Hepes which were from Sigma Chemical Co, St Louis, Mo. Test compounds were dissolved in DMSO and were added to the incubation reaction minus GST-GK in a volume of 12 μL to yield a final DMSO concentration of 10%. This mix was pre-incubated in the temperature controlled chamber of a SPECTRAmax 250 microplate spectrophotometer (Molecular Devices Corporation, Sunnyvale, Calif.) for 10 minutes to allow temperature equilibrium and then the reaction was started by the addition of 20 μL GST-GK.
After addition of enzyme, the increase in optical density (OD) at 340 nm was monitored over a 15 minute incubation period as a measure of GK activity. The GK activity in control wells (mOD/min) was compared with the activity in wells containing test GK activators (mOD/min), and the concentration of activator that produced a 50% increase in the activity of GK, i.e., the SC1.5, was calculated.

Structure (SMILES) | SC1.5
CS(=O)(=O)c1ccc(/C(=N\OC2CCCC2)C(=O)Nc2nc3ccccc3s2)cc1Cl [Example 14, (E)-N-Benzothiazol-2-yl-2-(3-chloro-4-methanesulfonyl-phenyl)-2-cyclopentyloxyimino-acetamide] | 0.26 µM
CS(=O)(=O)c1ccc(/C(=N\OC2CCCC2)C(=O)Nc2ccn(Cc3cccnc3)n2)cc1Cl [Example 31, (E)-2-(3-Chloro-4-methanesulfonyl-phenyl)-2-cyclopentyloxyimino-N-(1-pyridin-3-ylmethyl-1H-pyrazol-3-yl)-acetamide] | 0.35 µM
CS(=O)(=O)c1ccc(/C(=N\OC2CCCC2)C(=O)Nc2nc3ccc(Cl)cc3s2)cc1Cl [Example 23, (E)-N-(6-Chloro-benzothiazol-2-yl)-2-(3-chloro-4-methanesulfonyl-phenyl)-2-cyclopentyloxyimino-acetamide] | 2.8 µM
CC(C)CO/N=C(/C(=O)Nc1nc2ccccc2s1)c1ccc(S(C)(=O)=O)c(Cl)c1 [Example 25, (E)-N-Benzothiazol-2-yl-2-(3-chloro-4-methanesulfonyl-phenyl)-2-isobutoxyimino-acetamide] | 1.6 µM
Cn1ccc(NC(=O)/C(=N/OC2CCCCC2)c2ccc(S(C)(=O)=O)c(Cl)c2)n1 [Example 9, (E)-2-(3-Chloro-4-methanesulfonyl-phenyl)-2-cyclohexyloxyimino-N-(1-methyl-1H-pyrazol-3-yl)-acetamide] | 12 µM
O=C(Nc1nc2ccccc2s1)/C(=N/OC1CCCC1)c1ccc(Cl)c(Cl)c1 [Example 19, (E)-N-Benzothiazol-2-yl-2-cyclopentyloxyimino-2-(3,4-dichloro-phenyl)-acetamide] | 29 µM
Cc1nsc(NC(=O)/C(=N/OC2CCCCC2)c2ccc(S(C)(=O)=O)c(Cl)c2)n1 [Example 10, (E)-2-(3-Chloro-4-methanesulfonyl-phenyl)-2-cyclohexyloxyimino-N-(3-methyl-[1,2,4]thiadiazol-5-yl)-acetamide] | 8.4 µM
CC(C)O/N=C(/C(=O)Nc1nc2ccccc2s1)c1ccc(S(C)(=O)=O)c(Cl)c1 [Example 7, (E)-N-Benzothiazol-2-yl-2-(3-chloro-4-methanesulfonyl-phenyl)-2-isopropoxyimino-acetamide] | 0.79 µM
CS(=O)(=O)c1ccc(/C(=N\OC2CCCCC2)C(=O)Nc2ncc(C(N)=O)s2)cc1Cl [Example 12, (E)-2-[2-(3-Chloro-4-methanesulfonyl-phenyl)-2-cyclohexyloxyimino-acetylamino]-thiazole-5-carboxylic acid amide] | 1.1 µM
CC(C)CO/N=C(/C(=O)Nc1ccn(C)n1)c1ccc(S(C)(=O)=O)c(Cl)c1 [Example 24, (E)-2-(3-Chloro-4-methanesulfonyl-phenyl)-2-isobutoxyimino-N-(1-methyl-1H-pyrazol-3-yl)-acetamide] | 5.3 µM
